Results as given in ChEMBL document CHEMBL1152832, “Quantitative structure-activity relationship (QSAR) of aryl alkenyl amides/imines for bacterial efflux pump inhibitors” (2009).
≈ marks a conversion by molar mass, not a printed value. Calls of active or inactive are those of the source. The rule behind the calls is not given here.

Test system: Staphylococcus aureus
Assay: Inhibition of multidrug resistance efflux pump in Staphylococcus aureus ATCC 29213 assessed as potentiation factor measured by reduction in weighted average of ciprofloxacin MIC by serial dilution method
Conditions: not given

| Compound | PF | logPF |
| --- | --- | --- |
| COC(=O)/C=C/C(C)=C/c1ccc2c(c1)OCO2 | inactive | inactive |
| CCC(/C=C/C(=O)Nc1ccccc1OC)=C\c1ccc2c(c1)OCO2 | 60 | 1.78 |
| C(/C=C/c1ccc2c(c1)OCO2)=C\CN1CCCCC1 | 30 | 1.48 |
| CC(/C=C/C(=O)NC(C)c1ccc(Br)cc1)=C\c1ccc2c(c1)OCO2 (stereo not drawn) | 380 | 2.58 |
| CCCC(/C=C/C(=O)N1CCCCC1)=C\c1ccc(OC)cc1 | 210 | 2.32 |
| CCC(/C=C/C(=O)N1CCN(C)CC1)=C\c1ccc2c(c1)OCO2 | 130 | 2.11 |
| CCC(/C=C/C(=O)N1CCCC1)=C\c1ccc2c(c1)OCO2 | 90 | 1.95 |
| CCC(/C=C/CN1CCCCC1)=C\c1ccc2c(c1)OCO2 | 70 | 1.85 |
| CC/C=C/C(=C/c1ccc2c(c1)OCO2)CC | 20 | 1.3 |
| CC(/C=C/C(=O)N1CCCC1)=C\c1ccc2c(c1)OCO2 (stereo in doubt; 3) | 110 | 2.04 |
| CC(/C=C/C(=O)N1CCCC1)=C\c1ccc2c(c1)OCO2 (stereo in doubt; 12) | 130 | 2.11 |
| CC(=O)CNC(=O)CC(=O)/C=C/C(C)=C/c1ccc2c(c1)OCO2 | 310 | 2.49 |
| CCC(/C=C/C(=O)N1CCCCC1)=C\c1ccc(OC)c(OC)c1 | 220 | 2.34 |
| CC(/C=C/C(=O)N1CCCCC1)=C\c1ccc2c(c1)OCO2 | 180 | 2.25 |
| CCC(/C=C/C(=O)N1CCC(O)CC1)=C\c1ccc2c(c1)OCO2 | 210 | 2.32 |
| CC(/C=C/C(=O)N1CCN(C)CC1)=C\c1ccc2c(c1)OCO2 | 130 | 2.11 |
| CCCCC(/C=N/O)=C\c1ccc(OC)cc1 | 100 | 2 |
| CCC(/C=C/C(=O)NCC(C)C)=C\c1ccc2c(c1)OCO2 | 270 | 2.43 |
| CCC(/C=C/C(=O)O)=C\c1ccc2c(c1)OCO2 | 10 | 1 |
| CCC(/C=C/C(=O)N1CCCCC1)=C\c1ccc2c(c1)OCO2 | 240 | 2.38 |
| CCCC(/C=C/C(=O)O)=C\c1ccc2c(c1)OCO2 | inactive | inactive |
| CCC(/C=C/C(=O)NCC(=O)OC)=C\c1ccc2c(c1)OCO2 | 290 | 2.46 |
| CCC(/C=C/C(=O)Nc1ccccc1)=C\c1ccccc1 | 210 | 2.32 |

| Compound | PF | logPF |
| --- | --- | --- |
| CC(/C=C/C(=O)O)=C\c1ccc2c(c1)OCO2 | 10 | 1 |
| CCCCC(/C=N/C(CC)CO)=C\c1ccc(OC)cc1 (stereo not drawn) | 100 | 2 |
| COc1ccc(/C=C(C)/C=C/C(=O)N2CCCCC2)cc1 | 130 | 2.11 |
| CCCCC(/C=C/C(=O)N1CCN(C)CC1)=C\c1ccc2c(c1)OCO2 | 160 | 2.2 |
| CCC(/C=C/C(=O)Nc1ccccc1C)=C\c1ccc2c(c1)OCO2 | 60 | 1.78 |
| CCCC(/C=C/C(=O)N1CCCCC1)=C\c1ccc2c(c1)OCO2 | 210 | 2.32 |
| CCCCCCC(/C=C/C(=O)N1CCCCC1)=C\c1ccc(OC)cc1 | 130 | 2.11 |
| CC(/C=C/C(=O)N1CCOCC1)=C\c1ccc2c(c1)OCO2 | inactive | inactive |
| CC(/C=C/C(=O)N1CCC(O)CC1)=C\c1ccc2c(c1)OCO2 | 210 | 2.32 |
| CCC(/C=N/C(CC)CO)=C\c1ccc2c(c1)OCO2 (stereo not drawn) | 150 | 2.18 |
| O=C(/C=C/C=C/c1ccc2c(c1)OCCO2)N1CCOCC1 | 40 | 1.6 |
| CCC(/C=C/C(=O)N[C@@](C)(O)c1ccccc1)=C\c1ccc2c(c1)OCO2 | 30 | 1.48 |
| CCCC(/C=C/C(=O)N1CCN(C)CC1)=C\c1ccc(OC)cc1 | 130 | 2.11 |
| CCOC(=O)/C=C/C(C)=C/c1ccc2c(c1)OCO2 | inactive | inactive |
| CCC(CCC(=O)NCC(C)C)Cc1ccc2c(c1)OCO2 (stereo not drawn) | 70 | 1.85 |
| CCC(CCCC(=O)NCC(=O)NCC(=O)OC)Cc1ccc2c(c1)OCO2 (stereo not drawn) | 70 | 1.85 |
| CCC(/C=C/C(=O)NC(C)C=O)=C\c1ccc2c(c1)OCO2 (stereo not drawn) | 30 | 1.48 |
| CCCCC(/C=C/C(=O)N1CCCCC1)=C\c1ccc2c(c1)OCO2 | 200 | 2.3 |
| CCCCC(/C=N/c1ccccc1C(=O)O)=C\c1ccc(OC)cc1 | 100 | 2 |
| CCC(CO)NC(=O)/C=C/C(C)=C/c1ccc2c(c1)OCO2 (stereo not drawn) | 30 | 1.48 |
| CCCCC(/C=C/C(=O)N1CCC(O)CC1)=C\c1ccc2c(c1)OCO2 | 70 | 1.85 |
| COc1cc(/C=C(C)/C=C/C(=O)N2CCCCC2)ccc1O | 10 | 1 |
| CCCC(/C=C/C(=O)N1CCN(C)CC1)=C\c1ccc2c(c1)OCO2 | 60 | 1.78 |

Test system: Staphylococcus aureus
Assay: microbe, parasite or virus in culture
Conditions: ATCC 29213, 24 h
Description: Antibacterial activity against Staphylococcus aureus ATCC 29213 after 24 hrs

| Compound | MIC [µg/mL] |
| --- | --- |
| O=C(O)c1cn(C2CC2)c2cc(N3CCNCC3)c(F)cc2c1=O [CIPROFLOXACIN] | 0.25 (≈ 0.754 µM) |
